Laboratory results taken from US12403121B2, “Anticancer rocaglamide derivatives” (priority 2018, dated 2025).

Assays:
[1] = tested on: STS26T NF1+/+ MPNST cells; experiment: 3-day resazurin cell proliferation assay, STS26T MPNST cells; format: cell-based, human; conditions: Homo sapiens, STS-26T, 72 h, read-out: IC50 (nM) STS26T NF1+/+ MPNST cells
Experimental: (§1) The human MPNST cell lines, ST8814, STS26T, S462, T265, and luciferase-expressing ST8814-Luc, the human NF2-deficient meningioma cell line Ben-Men-1, the NJ2 mouse schwannoma cell line Sch10545, and primary human Schwann cells were propagated as previously described. Oblinger et al., Neuro-Oncol., 18:1265-1277 (2016). The Ewing sarcoma cell line A673 and the osteosarcoma cell lines, 143B and MG-63, were grown in Dulbecco's Modified Eagle's (DME) medium (Millipore-Sigma) supplemented with 10% fetal bovine serum (FBS; Atlanta Biological). The silvestrol-sensitive 697 and silvestrol-resistant 697-R pre-B acute lymphoblastic leukemia cells (Gupta et al., AAPS J., 13:357-364 (2011)), the Ewing sarcoma cell line TC32, the osteosarcoma cell lines, Saos2 and OS17, and the rhabdomyosarcoma cell line RD were cultivated in RPMI 1640 medium (Millipore-Sigma) plus 10% FBS.
(§2) Actively-growing cells were seeded in 96-well plates (Sarstedt) at 2,000 cells/well for Ben-Men-1 and RD cells, 30,000 cells/well for 697 and 697-R cells, and 4,000 cells/well for all other cell lines. The following day, cells were treated with various concentrations of each compound or and 0.05% of DMSO as the control for six days for MG-63 cells or three days for all remaining cell lines. Cell proliferation was assessed using resazurin assays and the IC50 value calculated. Cell cycle analysis was performed accordingly. Burns et al., Cancer Res., 73:792-803 (2013).
(§3) To search for compounds with better drug-like properties, the inventors conducted a side-by-side comparison of ten rocaglates lacking the dioxanyl ring with silvestrol for growth-inhibitory activity in a panel of MPNST, schwannoma, and meningioma cell lines, which they had previously shown to be sensitive to the antiproliferative action of silvestrol. […] The average IC50 value of each rocaglate was determined by 3-day resazurin proliferation assays. […] Further structure and activity comparison discerned some positions on the cyclopenta[b]benzofuran scaffold that affected the antiproliferative activity of rocaglates.

[2] = tested on: panel of MPNST, schwannoma, and meningioma cell lines; experiment: Side-by-side growth inhibition comparison with silvestrol in a cell line panel; format: cell-based; conditions: all cell lines tested
Experimental: as §2, §3

[3] = tested on: Sch10545 Nf2−/− schwannoma cells; experiment: 3-day resazurin cell proliferation assay, Sch10545 schwannoma cells; format: cell-based, mouse; conditions: Mus musculus, 72 h, read-out: IC50 (nM) Sch10545 Nf2−/− schwannoma cells
Experimental: as §1, §2, §3

[4] = tested on: Ben-Men-1 NF2−/− meningioma cells; experiment: 3-day resazurin cell proliferation assay, Ben-Men-1 meningioma cells; format: cell-based, human; conditions: Homo sapiens, 72 h, read-out: IC50 (nM) Ben-Men-1 NF2−/− meningioma cells
Experimental: as §1, §2, §3

[5] = tested on: TC32 Ewing sarcoma, 143B osteosarcoma, and RD rhabdomyosarcoma cells; experiment: Western blots of treated sarcoma cells; format: cell-based
Experimental: FIGS. 7A-7C provide images showing DDR and Roc reduce multiple signaling proteins important for the growth and survival of sarcoma cells. Lysates prepared from TC32 Ewing sarcoma (A), 143B osteosarcoma (B), and RD rhabdomyosarcoma (C) cells were treated 1 and 2 days with the indicated concentrations of DDR or Roc and analyzed by Western blotting for the expression of various oncogenic driver proteins. GAPDH was used as a loading control.
(§4) Subconfluent cells were treated with the indicated doses of Roc or DDR for 24-72 hours and then harvested in cell lysis buffer (Cell Signaling Technology) containing 1 mM phenylmethylsufonylfluoride and protease inhibitor cocktail (Sigma-Aldrich). The protein content in cleared lysates was quantitated using the microBCA assay (ThermoFisher). Equal amounts of protein were run in sodium dodecyl sulfate-polyacrylamide gels and electrotransferred onto Immobilon-FL PVDF membranes (Millipore). The antibodies used were directed against: MDR1/ABCB1 (#13978), insulin-like growth factor-1 receptor β subunit (IGF-1Rβ; #9750), AKT (#9272), ERK1/2 (#4695), glyceraldehyde-3-phosphate dehydrogenase (GAPDH; #5174), caspase-3 (#9662), caspase-7 (#9492), cleaved caspase-7 (#9491), poly(ADP-ribose) polymerase (PARP; #9532), cleaved PARP (#5625), and phospho-histone H2A.X (pH2A.X[Ser′^39]; #9718; all from Cell Signaling Technology), NKX2.2 (sc-514161), LSD1 (sc-136174), and survivin (sc-17779; Santa Cruz Biotechnology), and FLI1 (ab15289) and cleaved caspase-3 (CC3; ab32042; Abeam). Protein bands were detected using IRDye® infrared fluorescent dye-labeled secondary antibodies and scanning on an Odyssey CLx imaging system (LI-COR Biosciences) using the appropriate fluorescent channel at a resolution of 84 μm.
To further examine the molecular mechanisms underlying the antiproliferative effects of rocaglamides, the inventors treated TC32 Ewing sarcoma, 143B osteosarcoma, and RD rhabdomyosarcoma cells with 1- or 2-IC50 dose of DDR or rocaglamide for 1-2 days followed by Western blotting for several known drivers of cell survival and proliferation. […] They also observed reduction of the IGF-1Rβ levels in rocaglamide-treated MPNST cells. In addition, Roc and DDR decreased the levels of AKT, ERKs, cyclin D1 and survivin in treated TC32, 143B, and RD cells (FIG. 7). Intriguingly, the oncogenic fusion protein EWS-FLI1, which acts as an aberrant transcription factor in Ewing sarcoma, was not affected in Roc- and DDR-treated TC32 Ewing sarcoma cells (FIG. 7A). […] However, the expression of lysine demethylase 1 (LSD1), which modulates EWS-FLI1 transcriptional activity (Sankar et al., Oncogene, 32:5089-5100 (2013)), and NKX2.2, an EWS-FL11-regulated gene necessary for oncogenic transformation (Smith et al., Cancer Cell, 9:405-416 (2006)), were diminished by these rocaglamides in TC32 cells (FIG. 7A).

[6] = tested on: ST8814 NF1−/− MPNST cells; experiment: 3-day resazurin cell proliferation assay, ST8814 MPNST cells; format: cell-based, human; conditions: Homo sapiens, ST88-14, 72 h, read-out: IC50 (nM) ST8814 NF1−/− MPNST cells
Experimental: as §1, §2, §3

[7] = tested on: A673, TC32, 143B, MG-63, Saos2, OS17 and RD sarcoma cell lines; experiment: Cell proliferation in Ewing sarcoma, osteosarcoma and rhabdomyosarcoma cell lines; format: cell-based
Experimental: as §1, §2
Since MPNSTs comprise only ˜2% of all sarcomas (Farid et al. Oncologist, 19:193-201 (2014)), the inventors expanded their testing of Roc and DDR to three other more prevalent sarcomas particularly in children and young adults: Ewing sarcoma, osteosarcoma, and rhabdomyosarcoma.

[8] = tested on: STS26T and ST8814 MPNST cells; experiment: Flow cytometry cell cycle analysis; format: cell-based, human; conditions: one- or two-IC50 doses, three days
Experimental: as §2

[9] = tested on: STS26T cells; experiment: Western blots of treated MPNST cells; format: cell-based, human; conditions: 1 or 2 IC50
Experimental: FIGS. 2A and 2B provide images showing that DDR and Roc increase caspase and PARP cleavage and elevated the levels of γH2AX while decreasing the expression of AKT and ERKs in MPNST cells. (A) Protein lysates prepared from STS26T cells treated for 3 days with 1 or 2 IC50 of DDR or Roc were analyzed by Western blots for the expression of various apoptosis-related proteins and mitogenic kinases AKT and ERK1/2. GAPDH served as a loading control. (B) Western blot analysis was performed on lysates from STS26T cells treated for 1 and 2 days with 1 or 2 IC50 of DDR for the expression of the DNA-damage response biomarker phosphorylated H2A.X (γH2A.X). As a positive control, lysates from HMS-97 human malignant schwannoma cells irradiated with 4 Grays (Gy) of X-ray were used.
as §4
To confirm induction of apoptosis in rocaglamide-treated MPNST cells, the inventors analyzed protein expression of several markers important for this process. […] A concomitant decrease in the amounts of intact caspases 3 and 7 and PARP was observed, consistent with the enhanced cleavage of these apoptotic markers and possibly due to direct effects of these rocaglamides on protein translation. Likewise, the levels of the pro-survival kinases AKT and ERK1/2 were diminished in rocaglamide-treated MPNST cells.

[10] = tested on: 697 pre-B leukemia cells; experiment: Cell proliferation, parental silvestrol-sensitive 697 leukemic cells; format: cell-based; conditions: 72 h, 3 days treatment
Experimental: (§5) FIGS. 3A-3C provide graphs showing that, unlike silvestrol, DDR and Roe inhibits proliferation of MDR1-overexpressing 697-R leukemic cells at IC50 values similar to parental silvestrol-sensitive 697 cells. Cell proliferation was measured on 697-R and parental 697 pre-B leukemia cells treated for 3 days with various concentrations of silvestrol (A), DDR (B), and Roc (C). Each treatment was performed in six replicates, and each experiment was repeated twice. Shown are representative dose-response growth inhibition curves from experiments for all three drugs that were run in parallel. The IC50 values for individual growth curves are shown in the graph insets.
(§6) The human MPNST cell lines, ST8814, STS26T, S462, T265, and luciferase-expressing ST8814-Luc, the human NF2-deficient meningioma cell line Ben-Men-1, the NJ2 mouse schwannoma cell line Sch10545, and primary human Schwann cells were propagated as previously described. Oblinger et al., Neuro-Oncol., 18:1265-1277 (2016). […]
(§7) Actively-growing cells were seeded in 96-well plates (Sarstedt) at 2,000 cells/well for Ben-Men-1 and RD cells, 30,000 cells/well for 697 and 697-R cells, and 4,000 cells/well for all other cell lines. […] Cell proliferation was assessed using resazurin assays and the IC50 value calculated. […]

[11] = molecular target: multidrug resistance 1 (MDR1) transporter (Homo sapiens, UniProt P08183); conditions: cited from earlier work
[12] = Kinghorn et al. 2016 and NCI Developmental Therapeutics Program study, same conditions; cited from earlier work
[13] = tested on: 697-R leukemic cells (overexpress MDR1/Pgp); experiment: Cell proliferation, MDR1-overexpressing silvestrol-resistant 697-R leukemic cells; format: cell-based; conditions: MDR1, 72 h, read-out: IC50 in 697-R cells
Experimental: as §5, §6, §7

[14] = Saradhi et al. 2011; cited from earlier work

| SMILES | IC50 [1] | potency relative to silvestrol [2] | IC50 [3] | IC50 [4] | levels of the β subunit of IGF-1R ([5]; 1- or 2-IC50 dose, 1-2 days, all three sarcoma cell lines) | levels of AKT, ERKs, cyclin D1 and survivin ([5]; TC32, 143B, and RD cells, 1- or 2-IC50 dose, 1-2 days) | EWS-FLI1 fusion protein level ([5]; TC32 Ewing sarcoma cells) | expression of LSD1 and NKX2.2 ([5]; TC32 cells) | IC50 [6] | IC50 values of DDR compared with Roc ([7]; every sarcoma cell line tested) | activity against sarcoma cell lines ([7]; two Ewing sarcoma, four osteosarcoma, one rhabdomyosarcoma cell lines) | G2/M fraction [8] | levels of γH2AX ([9]; STS26T MPNST cells) | cleavage of caspases 3 and 7 and PARP ([9]; STS26T cells, 3 days) | expression of AKT and ERKs ([9]; STS26T cells, 3 days) | IC50 [10] | substrate for the MDR1 transporter [11] | pulmonary toxicity in dogs [12] | IC50 [13] | oral bioavailability [14] |
| --- | --- | --- | --- | --- | --- | --- | --- | --- | --- | --- | --- | --- | --- | --- | --- | --- | --- | --- | --- | --- |
| COc1ccc([C@@]23Oc4cc(OC)cc(OC)c4[C@]2(O)[C@H](O)[C@H](C(N)=O)[C@H]3c2ccccc2)cc1 [Didesmethylrocaglamide] | 5 nM | ~2 fold | 10 nM | 5 nM | reliably reduced | decreased | not affected | diminished | 5 nM | lower IC5O values than Roc | highly active | marked increase in the GVM fraction | elevated | increased cleavage | decreasing |  |  |  |  |  |
| COC(=O)[C@H]1[C@@H](O)[C@@]2(O)c3c(OC)cc(O[C@@H]4O[C@@H]([C@H](O)CO)CO[C@H]4OC)cc3O[C@@]2(c2ccc(OC)cc2)[C@@H]1c1ccccc1 [Silvestrol, reference compound] | 10 nM |  | 70 nM | 10 nM |  |  |  |  | 40 nM |  |  |  |  |  |  | 3.5 nM | substrate | unexpected pulmonary toxicity | 26 nM | less than 2% |
